Results reported in the supplement of paper PMC11061612.

What was measured:
AZD4320 = compound: CN(CC[C@H](CSC1=CC=CC=C1)NC2=C(C=C(C=C2)S(=O)(=O)NC(=O)C3=CC=C(C=C3)N4CCC(CC4)[C@H](C5=CC=CC=C5C6=CC=C(C=C6)Cl)O)S(=O)(=O)C(F)(F)F)CCO [AZD4320]; conditions: max 1 µM
Outline: (§1)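 After 24 hours at 37°C and 5% CO2 in 1536-well plates holding 7.5 μl of DMEM/F12 or RPMI with 10% FBS, cancer cell lines were dosed for 72 hours, with final DMSO typically 0.2%. Viability came from CellTiter-Glo 2.0 luminescence, scaled between the means of blank wells and DMSO wells. A non-linear mixed effects model fitted a two-parameter logistic curve to each dose response to give the single-agent IC50.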

Venetoclax = compound: CC1(C)CCC(CN2CCN(c3ccc(C(=O)NS(=O)(=O)c4ccc(NCC5CCOCC5)c([N+](=O)[O-])c4)c(Oc4cnc5[nH]ccc5c4)c3)CC2)=C(c2ccc(Cl)cc2)C1 [Venetoclax]; conditions: max 1 µM
Outline: as §1

Dasatinib = compound: CC1=C(C(=CC=C1)Cl)NC(=O)C2=CN=C(S2)NC3=CC(=NC(=N3)C)N4CCN(CC4)CCO [Dasatinib]; conditions: max 2 µM
Outline: as §1

Taselisib = compound: Cc1nc(-c2cn3c(n2)-c2ccc(-c4cnn(C(C)(C)C(N)=O)c4)cc2OCC3)n(C(C)C)n1 [Taselisib]; conditions: max 10 µM
Outline: as §1

Alisertib = compound: COc1cc(Nc2ncc3c(n2)-c2ccc(Cl)cc2C(c2c(F)cccc2OC)=NC3)ccc1C(=O)O [Alisertib]; conditions: max 10 µM
Outline: as §1

Capivasertib = compound: C1CN(CCC1(C(=O)N[C@@H](CCO)C2=CC=C(C=C2)Cl)N)C3=NC=NC4=C3C=CN4 [Capivasertib]; conditions: max 10 µM
Outline: as §1

MK-2206 = compound: NC1(c2ccc(-c3nc4ccn5c(=O)[nH]nc5c4cc3-c3ccccc3)cc2)CCC1 [MK-2206]; conditions: max 10 µM
Outline: as §1

Doxorubicin = compound: COc1cccc2c1C(=O)c1c(O)c3c(c(O)c1C2=O)C[C@@](O)(C(=O)CO)C[C@@H]3O[C@H]1C[C@H](N)[C@H](O)[C@H](C)O1 [Doxorubicin]; conditions: max 1 µM
Outline: as §1

Savolitinib = compound: C[C@@H](c1ccc2nccn2c1)n1nnc2ncc(-c3cnn(C)c3)nc21 [Savolitinib]; conditions: max 1 µM
Outline: as §1

Gefitinib = compound: COc1cc2ncnc(Nc3ccc(F)c(Cl)c3)c2cc1OCCCN1CCOCC1 [Gefitinib]; conditions: max 10 µM
Outline: as §1

AZD8186 = compound: C[C@@H](Nc1cc(F)cc(F)c1)c1cc(C(=O)N(C)C)cc2c(=O)cc(N3CCOCC3)oc12 [AZD8186]; conditions: max 3 µM
Outline: as §1

SG3199 = compound: CC1=CN2[C@@H](C1)C=NC3=CC(=C(C=C3C2=O)OC)OCCCCCOC4=C(C=C5C(=C4)N=C[C@@H]6CC(=CN6C5=O)C)OC [SG3199]; conditions: max 0.001 µM
Outline: as §1

AZD6738 = compound: C[C@@H]1COCCN1C2=NC(=NC(=C2)C3(CC3)[S@](=N)(=O)C)C4=C5C=CNC5=NC=C4 [AZD6738]; conditions: max 10 µM
Outline: as §1

Trametinib = compound: CC(=O)Nc1cccc(-n2c(=O)n(C3CC3)c(=O)c3c(Nc4ccc(I)cc4F)n(C)c(=O)c(C)c32)c1 [Trametinib]; conditions: max 1 µM
Outline: as §1

AZD7648 = compound: Cc1cc2ncnn2cc1Nc1ncc2c(n1)n(C1CCOCC1)c(=O)n2C [AZD7648]; conditions: max 10 µM
Outline: as §1

AZD5991 = compound: Cc1c2c(nn1C)CSCc1cc(n(C)n1)CSc1cc(c3ccccc3c1)OCCCc1c(C(=O)O)n(C)c3c-2c(Cl)ccc13 [AZD5991]; conditions: max 1 µM
Outline: as §1

AZD1390 = compound: CC(C)n1c(=O)n(C)c2cnc3cc(F)c(-c4ccc(OCCCN5CCCCC5)nc4)cc3c21 [AZD1390]; conditions: max 0.3 µM
Outline: as §1

Crizotinib = compound: C[C@@H](Oc1cc(-c2cnn(C3CCNCC3)c2)cnc1N)c1c(Cl)ccc(F)c1Cl [Crizotinib]; conditions: max 10 µM
Outline: as §1

AZD5153 = compound: COc1nnc2ccc(N3CCC(c4ccc(OCCN5CCN(C)C(=O)[C@H]5C)cc4)CC3)nn12 [AZD5153]; conditions: max 1 µM
Outline: as §1

AZD1775 = compound: C=CCn1c(=O)c2cnc(Nc3ccc(N4CCN(C)CC4)cc3)nc2n1-c1cccc(C(C)(C)O)n1 [AZD1775]; conditions: max 3 µM
Outline: as §1

Palbociclib = compound: CC(=O)c1c(C)c2cnc(Nc3ccc(N4CCNCC4)cn3)nc2n(C2CCCC2)c1=O [Palbociclib]; conditions: max 10 µM
Outline: as §1

SN-38 = compound: CCc1c2c(nc3ccc(O)cc13)-c1cc3c(c(=O)n1C2)COC(=O)[C@]3(O)CC [SN-38]; conditions: max 0.3 µM
Outline: as §1

Lapatinib = compound: CS(=O)(=O)CCNCc1ccc(-c2ccc3ncnc(Nc4ccc(OCc5cccc(F)c5)c(Cl)c4)c3c2)o1 [Lapatinib]; conditions: max 10 µM
Outline: as §1

Prexasertib = compound: COc1cccc(OCCCN)c1-c1cc(Nc2cnc(C#N)cn2)n[nH]1 [Prexasertib]; conditions: max 1 µM
Outline: as §1

Olaparib = compound: O=C(c1cc(Cc2n[nH]c(=O)c3ccccc23)ccc1F)N1CCN(C(=O)C2CC2)CC1 [Olaparib]; conditions: max 10 µM
Outline: as §1

Selumetinib = compound: Cn1cnc2c(F)c(Nc3ccc(Br)cc3Cl)c(C(=O)NOCCO)cc21 [Selumetinib]; conditions: max 10 µM
Outline: as §1

AZD2811 = compound: CCN(CCO)CCCOc1ccc2c(Nc3cc(CC(=O)Nc4cccc(F)c4)[nH]n3)ncnc2c1 [AZD2811]; conditions: max 1 µM
Outline: as §1

AZD0156 = compound: CN(C)CCCOc1ccc(-c2ccc3ncc4c(c3c2)n(C2CCOCC2)c(=O)n4C)cn1 [AZD0156]; conditions: max 3 µM
Outline: as §1

DU-4475 (Breast Carcinoma)
IC50, cell viability 72 h (AZD4320): 93.5 nM
IC50, cell viability 72 h (Venetoclax): > 1000 nM
IC50, cell viability 72 h (Dasatinib): > 2000 nM
IC50, cell viability 72 h (Taselisib): > 10000 nM
IC50, cell viability 72 h (Alisertib): 543 nM
IC50, cell viability 72 h (Capivasertib): > 10000 nM
IC50, cell viability 72 h (MK-2206): > 10000 nM
IC50, cell viability 72 h (Doxorubicin): 32.3 nM
IC50, cell viability 72 h (Savolitinib): > 1000 nM
IC50, cell viability 72 h (Gefitinib): > 10000 nM
IC50, cell viability 72 h (AZD8186): > 3000 nM
IC50, cell viability 72 h (SG3199): > 1 nM
IC50, cell viability 72 h (AZD6738): 1700 nM
IC50, cell viability 72 h (Trametinib): 1.18 nM
IC50, cell viability 72 h (AZD7648): > 10000 nM
IC50, cell viability 72 h (AZD5991): > 1000 nM
IC50, cell viability 72 h (AZD1390): > 300 nM
IC50, cell viability 72 h (Crizotinib): 3780 nM
IC50, cell viability 72 h (AZD5153): 210 nM
IC50, cell viability 72 h (AZD1775): 437 nM
IC50, cell viability 72 h (Palbociclib): > 10000 nM
IC50, cell viability 72 h (SN-38): 1.93 nM
IC50, cell viability 72 h (Lapatinib): 6760 nM
IC50, cell viability 72 h (Prexasertib): 86.4 nM
IC50, cell viability 72 h (Olaparib): 5190 nM
IC50, cell viability 72 h (Selumetinib): 55.6 nM
IC50, cell viability 72 h (AZD2811): > 1000 nM
IC50, cell viability 72 h (AZD0156): > 3000 nM

CA46 (Burkitt's Lymphoma)
IC50, cell viability 72 h (AZD4320): > 1000 nM
IC50, cell viability 72 h (Venetoclax): > 1000 nM
IC50, cell viability 72 h (Dasatinib): > 2000 nM
IC50, cell viability 72 h (Taselisib): > 10000 nM
IC50, cell viability 72 h (Alisertib): > 10000 nM
IC50, cell viability 72 h (Capivasertib): > 10000 nM
IC50, cell viability 72 h (Doxorubicin): > 1000 nM
IC50, cell viability 72 h (Savolitinib): > 1000 nM
IC50, cell viability 72 h (Gefitinib): > 10000 nM
IC50, cell viability 72 h (AZD8186): > 3000 nM
IC50, cell viability 72 h (SG3199): > 1 nM
IC50, cell viability 72 h (AZD6738): > 10000 nM
IC50, cell viability 72 h (Trametinib): > 1000 nM
IC50, cell viability 72 h (AZD7648): > 10000 nM
IC50, cell viability 72 h (AZD5991): > 1000 nM
IC50, cell viability 72 h (AZD1390): > 300 nM
IC50, cell viability 72 h (Crizotinib): > 10000 nM
IC50, cell viability 72 h (AZD5153): 232 nM
IC50, cell viability 72 h (AZD1775): 579 nM
IC50, cell viability 72 h (Palbociclib): > 10000 nM
IC50, cell viability 72 h (SN-38): 135 nM
IC50, cell viability 72 h (Lapatinib): > 10000 nM
IC50, cell viability 72 h (Prexasertib): 142 nM
IC50, cell viability 72 h (Olaparib): > 10000 nM
IC50, cell viability 72 h (Selumetinib): > 10000 nM
IC50, cell viability 72 h (AZD2811): > 1000 nM
IC50, cell viability 72 h (AZD0156): > 3000 nM

ESO26 (Esophageal Adenocarcinoma)
IC50, cell viability 72 h (AZD4320): > 1000 nM
IC50, cell viability 72 h (Venetoclax): > 1000 nM
IC50, cell viability 72 h (Dasatinib): > 2000 nM
IC50, cell viability 72 h (Taselisib): 1840 nM
IC50, cell viability 72 h (Alisertib): > 10000 nM
IC50, cell viability 72 h (Capivasertib): 8590 nM
IC50, cell viability 72 h (Doxorubicin): > 1000 nM
IC50, cell viability 72 h (Savolitinib): > 1000 nM
IC50, cell viability 72 h (Gefitinib): 4700 nM
IC50, cell viability 72 h (AZD8186): > 3000 nM
IC50, cell viability 72 h (SG3199): > 1 nM
IC50, cell viability 72 h (AZD6738): > 10000 nM
IC50, cell viability 72 h (Trametinib): > 1000 nM
IC50, cell viability 72 h (AZD7648): > 10000 nM
IC50, cell viability 72 h (AZD5991): > 1000 nM
IC50, cell viability 72 h (AZD1390): > 300 nM
IC50, cell viability 72 h (Crizotinib): > 10000 nM
IC50, cell viability 72 h (AZD5153): 398 nM
IC50, cell viability 72 h (AZD1775): 1470 nM
IC50, cell viability 72 h (Palbociclib): > 10000 nM
IC50, cell viability 72 h (SN-38): 223 nM
IC50, cell viability 72 h (Lapatinib): 814 nM
IC50, cell viability 72 h (Prexasertib): 380 nM
IC50, cell viability 72 h (Olaparib): > 10000 nM
IC50, cell viability 72 h (Selumetinib): > 10000 nM
IC50, cell viability 72 h (AZD2811): > 1000 nM
IC50, cell viability 72 h (AZD0156): > 3000 nM
